Reference: US6964966B2, “Generation triple-targeting, chiral, broad-spectrum antimicrobial 7-substituted piperidino-quinolone carboxylic acid derivatives, their preparation, compositions and use as medicaments” (Wockhardt Limited, priority 2001, dated 2005)
≈ marks a conversion by molar mass, not a printed value. Like-named read-outs stand apart in the source and are kept apart here. Each block holds one molecule with its values, some of them ahead of it.

Key:
[1] = Phototoxicity, oral dose and UVA exposure, mice; conditions: UVA 4 hours for 4 consecutive days, dose causing ear erythema and oedema
Experimental: The stock solutions for different doses were prepared freshly on the day of experimentation. Appropriate concentration of each dose was chosen to give a constant dosage volume of 0.3-0.4 ml/20 g body weight of mouse. The treated mice were exposed to UVA light source immediately after dosing for 4 hours and for 4 consecutive days. The mean light intensity in the UVA chamber was adjusted to 0.9-1.2 mW/cm^2. The total irradiation dose was approximately 18 Joules/cm^2/day. A phototoxic dose is one which causes ear erythema and oeadema.

[2] = tested on: Fluoroquinolone-Resistant Strains; assay: In-vitro antimicrobial test, MIC by agar dilution (NCCLS): fluoroquinolone-resistant strains (Table 18); assay type: cell-based
Experimental: (§1) The test method was in accordance with the standard NCCLS protocol (Methods for Dilution Antimicrobial Susceptibility Tests for Bacteria that grow Aerobicially, Approved Standards, M7-A5, Fifth Edition, January 2000).
(§2) The antibacterial activities (minimum inhibitory concentration: MIC, mcg/ml) were determined by using the two-fold serial agar dilution method recommended by NCCLS. The media used for preculture and main culture were Tryptic Soya broth (Difco) and Mueller Hinton medium (Difco), respectively. The Mueller Hinton agar was supplemented with 5% sheep blood for streptococci. Overnight cultures were diluted with buffered saline (pH 7.2) to the final cell density of 5×10^6-10^7 CFU/ml, and each bacterial suspension was applied with a replicator (Denley's multipoint inoculator, UK) onto a series of Mueller-Hinton agar plates containing antibacterial agents at various concentrations. Final inoculum was approximately 10^4 CFU/spot. The plates were incubated for 18 hrs at 37° C. The MIC was defined as the lowest concentration of an antibacterial agent that inhibits the development of visible microbial growth on agar.

[3] = tested on: Fluoroquinolone Sensitive Strains; assay: In-vitro antimicrobial test, MIC by two-fold serial agar dilution (NCCLS): fluoroquinolone sensitive strains (Table 17); assay type: cell-based
Experimental: as §1, §2

[4] = tested on: Multidrug-Resistant (MDR) Pneumococcal Infections; assay: In-vivo antimicrobial test: systemic infection model (mouse septicemia), oral ED50 (Table 22); design: species or system Swiss mice; conditions: oral 1 hour and 5 hours post-infection, survival on day 7, strain resistant to β-lactams, macrolides and fluoroquinolones
Experimental: The in vivo efficacy was studied through mouse septicemia model of infection in Swiss male and female mice (4 weeks old, 20+2 g weight) using 6 animals in each group. Infective organisms were inoculated intraperitonially. Compound were administered by oral route 1 hour and 5 hours post-infection. […] Appropriate comparators were included in the study.

[5] = tested on: Trovafloxacin-Resistant and Vancomycin-Resistant Enterococci; assay: In-vitro antimicrobial test, MIC by agar dilution (NCCLS): enterococci (Table 19); assay type: cell-based; conditions: for MIC: read-out: MIC, V R E 336
Source text: The comparative antimicrobial activity of representative compounds of the invention and reference compounds against various sensitive and resistant microorganisms is given in Tables 17 to 20. The test method was in accordance with the standard NCCLS protocol (Methods for Dilution Antimicrobial Susceptibility Tests for Bacteria that grow Aerobicially, Approved Standards, M7-A5, Fifth Edition, January 2000).
as §2

[6] = tested on: V79 (Chinese Hamster Lung); assay: Cytotoxicity test (Alamar blue), V79 cells (Table 23); assay type: cell-based; conditions: minimum drug concentration inhibiting Alamar blue color change, 3 hrs drug exposure, then 96 hrs incubation
Experimental: (§3) Compounds were evaluated for their cytotoxic potential against two […] viz. […] Freshly grown cells were distributed in microtiter plates at a cell density of 10^5-10^6 cells/well and allowed to adhere and form monolayer by incubating the microtiter plate at 37° C. for 24 hrs. […] Following 3 hrs. of drug exposure, cells were washed with D-MEM and incubated further for 96 hrs. Cytotoxic effects of drugs were monitored through daily microscopic observation and by ascertaining the metabolic status through redox indicator Alamar blue. Healthy actively metabolising cells bring about colour change of Alamar blue from blue to pink within an overnight incubation. Cytotoxic drugs inhibit this reaction resulting into blue coloured wells. Minimum drug concentration inhibiting Alamar blue color change i.e. resulting into blue coloured wells for a given drug is considered cytotoxic concentration.

J 744 (mouse macrophage) = assay: Cytotoxicity test (Alamar blue), J 744 cells (Table 23); assay type: cell-based; conditions: minimum drug concentration inhibiting Alamar blue color change; 3 hrs drug exposure, then 96 hrs incubation; J 744 mouse macrophage cells
Experimental: as §3

[7] = tested on: Clinical Isolate MRSA 5076 with Mutations in DNA Gyrase and Topoisomerase IV as well as bearing an Efflux Pump; assay type: cell-based
Experimental: as §1, §2

MRSA 5027 = assay type: cell-based
[8] = vancomycin-resistant Enterococcus faecium 336
[9] = Enterococcus faecalis, ATCC29212, E. faecalis ATCC 29212, read-out: MIC, E. faecalis ATCC 29212

melting point: 218 to 220 °C
SMILES: COc1c(N2CCC(NC(=O)OC(C)(C)C)C(C)(C)C2)c(F)cc2c(=O)c(C(=O)O)cn(C3CC3)c12 (stereo not drawn) [Compound 23, 1-Cyclopropyl-6-fluoro-1,4-dihydro-8-methoxy-7-(4-t-butyloxycarbonylamino-3,3-dimethyl-1-piperidinyl)-4-oxo-quinoline-3-carboxylic acid]

SMILES: COc1c(N2CCC(N)C(C)(C)C2)c(F)cc2c(=O)c(C(=O)O)cn(C3CC3)c12 (single isomer, unassigned; (-)) [Compound 20, (−)-1-Cyclopropyl-6-fluoro-1,4-dihydro-8-mehtoxy-7-(4-amino-3,3-dimethyl-1-piperidinyl)-4-oxo-quinoline-3-carboxylic acid]
phototoxic dose [1]: greater than 500 mg/kg | MIC, Cipro^R S. sanguis 941 [2]: 0.4 µg/mL (≈ 0.991 µM) | MIC, FQ^R S. pneumoniae 718 [2]: 0.8 µg/mL (≈ 1.98 µM) | MIC, MRSA 032 [2]: 0.8 µg/mL (≈ 1.98 µM) | MIC, E. coli ATCC 25922 [3]: 0.2 µg/mL (≈ 0.496 µM) | ED50 p.o. MDR S. pneumoniae 718 [4]: 50 mg/kg

SMILES: COc1c(N2CCC(N)C(C)(C)C2)c(F)cc2c(=O)c(C(=O)O)cn(C3CC3)c12 (single isomer, unassigned; (+)) [Compound 19, (+)-1-Cyclopropyl-6-fluoro-1,4-dihydro-8-mehtoxy-7-(4-amino-3,3-dimethyl-1-piperidinyl)-4-oxo-quinoline-3-carboxylic acid]
phototoxic dose [1]: greater than 500 mg/kg | MIC, Cipro^R S. mitis 938 [2]: 0.8 µg/mL (≈ 1.98 µM) | MIC, Cipro^R S. sanguis 941 [2]: 0.2 µg/mL (≈ 0.496 µM) | MIC, FQ^R S. pneumoniae 718 [2]: 0.4 µg/mL (≈ 0.991 µM) | MIC, MRSA 032 [2]: 0.8 µg/mL (≈ 1.98 µM) | MIC, E. coli ATCC 25922 [3]: 0.2 µg/mL (≈ 0.496 µM) | ED50 p.o. MDR S. pneumoniae 718 [4]: 20 mg/kg

MIC [5, 8]: 3.12 µg/mL (≈ 8.33 µM) | MIC [3, 9]: 0.1 µg/mL (≈ 0.267 µM) | MIC ([3]; S. sanguis ATCC 10556 (Viridans Streptococci), read-out: MIC, S. sanguis ATCC 10556): 0.025 µg/mL (≈ 0.0668 µM)
SMILES: Cc1c(N2CC[C@H](O)[C@H](C)C2)c(F)cc2c(=O)c(C(=O)O)cn(C3CC3)c12 (relative stereo) [Compound 85, cis-1-Cyclopropyl-6-fluoro-8-methyl-7-(4-hydroxy-3-methyl-1-piperidinyl)-1,4-dihydro-4-oxo-quinoline-3-carboxylic acid]
Cytotoxic concentration, V 79 CHL [6]: >1000 µg/mL | Cytotoxic concentration, J 744 Macrophage (J 744 (mouse macrophage)): >1000 µg/mL

SMILES: Cc1c(N2CCC(O)C(C)C2)c(F)cc2c(=O)c(C(=O)O)cn(C3CC3)c12 (mixture of isomers) [Compound 84, cis/trans-1-Cyclopropyl-6-fluoro-8-methyl-7-(4-hydroxy-3-methyl-1-piperidinyl)-1,4-dihydro-4-oxo-quinoline-3-carboxylic acid]
MIC, Cipro^R S. mitis 938 [2]: 0.4 µg/mL | MIC, Cipro^R S. sanguis 941 [2]: 0.4 µg/mL | MIC, FQ^R S. pneumoniae 718 [2]: 0.8 µg/mL | MIC, MRSA 032 [2]: 0.2 µg/mL | MIC, Trova-Resist MRSE 110 ([5]; Trovafloxacin-resistant methicillin-resistant S. epidermidis 110): 0.4 µg/mL | MIC, V R E 336 [5, 8]: 3.12 µg/mL | MIC, E. coli ATCC 25922 [3]: 0.2 µg/mL | MIC, E. faecalis ATCC 29212 ([3]; E. faecalis ATCC 29212): 0.05 µg/mL | MIC, MSSA ATCC 25923 ([3]; MSSA ATCC 25923): 0.003 µg/mL | MIC, P. aeruginosa 27853 ([3]; P. aeruginosa 27853): 3.12 µg/mL | MIC, S. pneumoniae ATCC 49619 ([3]; S. pneumoniae ATCC 49619): 0.025 µg/mL | MIC, S. sanguis ATCC 10556 ([3]; S. sanguis ATCC 10556 (Viridans Streptococci)): 0.05 µg/mL

SMILES: Cc1c(N2CC[C@@H](O)[C@H](C)C2)c(F)cc2c(=O)c(C(=O)O)cn(C3CC3)c12 (relative stereo) [Compound 86, trans-1-Cyclopropyl-6-fluoro-8-methyl-7-(4-hydroxy-3-methyl-1-piperidinyl)-1,4-dihydro-4-oxo-quinoline-3-carboxylic acid]
MIC, MRSA 5076 + efflux inhibitor reserpine [7]: 0.2 µg/mL | melting point: 214 to 216 °C | MIC [5, 8]: 3.12 µg/mL (≈ 8.33 µM) | MIC [3, 9]: 0.05 µg/mL (≈ 0.134 µM) | Cytotoxic concentration, V 79 CHL [6]: >1000 µg/mL | Cytotoxic concentration, J 744 Macrophage (J 744 (mouse macrophage)): >1000 µg/mL

SMILES: COc1c(N2CCC(N)C(C)(C)C2)c(F)cc2c(=O)c(C(=O)O)cn(C3CC3)c12 (racemic) [Compound 18, (±)-1-Cyclopropyl-6-fluoro-1,4-dihydro-8-mehtoxy-7-(4-amino-3,3-dimethyl-1-piperidinyl)-4-oxo-quinoline-3-carboxylic acid]
phototoxic dose [1]: greater than 500 mg/kg | MIC, Cipro^R S. sanguis 941 [2]: 0.4 µg/mL (≈ 0.991 µM) | MIC, FQ^R S. pneumoniae 718 [2]: 0.8 µg/mL (≈ 1.98 µM) | MIC, MRSA 032 [2]: 0.8 µg/mL (≈ 1.98 µM) | MIC against MRSA 5027 after 10 passage in drug containing medium (MRSA 5027; after 10 passages): 0.4 µg/mL (≈ 0.991 µM) | MIC against MRSA 5027, initially (MRSA 5027; before passages in drug-containing medium): 0.4 µg/mL (≈ 0.991 µM) | MIC, E. coli ATCC 25922 [3]: 0.2 µg/mL (≈ 0.496 µM) | ED50 p.o. MDR S. pneumoniae 718 [4]: 30 mg/kg
